The target of test [1] is T1, Peroxisome proliferator-activated receptor gamma (Homo sapiens, UniProt P37231).
T1 sequence (P37231 whole entry): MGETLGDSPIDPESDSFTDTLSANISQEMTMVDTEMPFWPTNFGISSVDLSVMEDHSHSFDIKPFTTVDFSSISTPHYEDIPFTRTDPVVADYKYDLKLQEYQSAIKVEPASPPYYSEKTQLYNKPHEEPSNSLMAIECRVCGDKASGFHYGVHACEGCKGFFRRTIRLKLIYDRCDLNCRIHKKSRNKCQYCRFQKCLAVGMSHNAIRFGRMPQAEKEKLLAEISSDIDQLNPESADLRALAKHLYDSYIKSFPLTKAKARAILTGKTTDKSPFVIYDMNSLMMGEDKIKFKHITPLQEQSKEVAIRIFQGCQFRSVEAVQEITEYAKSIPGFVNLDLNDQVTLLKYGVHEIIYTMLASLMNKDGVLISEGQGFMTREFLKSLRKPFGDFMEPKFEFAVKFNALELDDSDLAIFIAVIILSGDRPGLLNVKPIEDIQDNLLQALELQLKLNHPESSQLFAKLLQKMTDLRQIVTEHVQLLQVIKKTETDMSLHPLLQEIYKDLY
It counts as functional.

For test [2], the target named is D(1B) dopamine receptor (Homo sapiens, UniProt P21918).
For test [3], the target named is 5-hydroxytryptamine receptor 5A (Homo sapiens, UniProt P47898).
Test [4] addresses Rod cGMP-specific 3',5'-cyclic phosphodiesterase subunit alpha (Homo sapiens, UniProt P16499). The class given is functional.
For test [5], the target named is 5-hydroxytryptamine receptor 2B (Homo sapiens, UniProt P41595).
Test [6] has as its target T2, Corticotropin-releasing factor receptor 1 (Homo sapiens, UniProt P34998).
T2 sequence (P34998 whole entry): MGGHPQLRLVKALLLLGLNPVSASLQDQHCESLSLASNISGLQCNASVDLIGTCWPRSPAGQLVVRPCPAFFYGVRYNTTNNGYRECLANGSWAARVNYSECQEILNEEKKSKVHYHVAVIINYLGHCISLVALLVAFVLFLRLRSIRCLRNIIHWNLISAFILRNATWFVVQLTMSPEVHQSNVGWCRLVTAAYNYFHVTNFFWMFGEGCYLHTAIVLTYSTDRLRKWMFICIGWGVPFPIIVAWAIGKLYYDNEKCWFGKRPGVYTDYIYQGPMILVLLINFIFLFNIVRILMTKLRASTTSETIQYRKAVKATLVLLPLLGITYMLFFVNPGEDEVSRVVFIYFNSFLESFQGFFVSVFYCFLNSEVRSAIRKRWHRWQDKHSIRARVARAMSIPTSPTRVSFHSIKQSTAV

For test [7], the target named is T3, Prostaglandin G/H synthase 1 (Rattus norvegicus, UniProt Q63921).
T3 sequence (Q63921 whole entry): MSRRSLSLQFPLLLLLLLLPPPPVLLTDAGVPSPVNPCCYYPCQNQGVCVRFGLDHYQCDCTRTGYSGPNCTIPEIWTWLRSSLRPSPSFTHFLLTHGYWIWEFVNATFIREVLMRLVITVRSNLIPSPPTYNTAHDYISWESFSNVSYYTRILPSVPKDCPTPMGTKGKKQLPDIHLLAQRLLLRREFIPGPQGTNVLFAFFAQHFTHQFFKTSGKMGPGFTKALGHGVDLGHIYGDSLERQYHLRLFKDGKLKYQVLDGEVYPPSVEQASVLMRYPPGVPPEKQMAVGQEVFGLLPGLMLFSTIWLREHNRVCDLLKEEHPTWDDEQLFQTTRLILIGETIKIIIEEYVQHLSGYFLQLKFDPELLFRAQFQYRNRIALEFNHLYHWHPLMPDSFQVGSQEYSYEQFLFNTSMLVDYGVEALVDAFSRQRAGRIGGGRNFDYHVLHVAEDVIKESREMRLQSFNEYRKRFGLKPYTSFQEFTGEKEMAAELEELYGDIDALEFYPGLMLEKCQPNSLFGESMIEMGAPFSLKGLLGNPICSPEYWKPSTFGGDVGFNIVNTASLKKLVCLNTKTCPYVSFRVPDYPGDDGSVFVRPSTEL
It counts as functional.

Test [8] concerns the target Hydroxycarboxylic acid receptor 2 (Homo sapiens, UniProt Q8TDS4).
Test [9] concerns the target Synaptic vesicular amine transporter (Rattus norvegicus, UniProt Q01827). The class given is functional.
Test [10] deals with D(1A) dopamine receptor (Homo sapiens, UniProt P21728). It counts as functional, cell-based.
Test [11] has as its target T4, Estrogen receptor (Homo sapiens, UniProt P03372).
T4 sequence (P03372 whole entry): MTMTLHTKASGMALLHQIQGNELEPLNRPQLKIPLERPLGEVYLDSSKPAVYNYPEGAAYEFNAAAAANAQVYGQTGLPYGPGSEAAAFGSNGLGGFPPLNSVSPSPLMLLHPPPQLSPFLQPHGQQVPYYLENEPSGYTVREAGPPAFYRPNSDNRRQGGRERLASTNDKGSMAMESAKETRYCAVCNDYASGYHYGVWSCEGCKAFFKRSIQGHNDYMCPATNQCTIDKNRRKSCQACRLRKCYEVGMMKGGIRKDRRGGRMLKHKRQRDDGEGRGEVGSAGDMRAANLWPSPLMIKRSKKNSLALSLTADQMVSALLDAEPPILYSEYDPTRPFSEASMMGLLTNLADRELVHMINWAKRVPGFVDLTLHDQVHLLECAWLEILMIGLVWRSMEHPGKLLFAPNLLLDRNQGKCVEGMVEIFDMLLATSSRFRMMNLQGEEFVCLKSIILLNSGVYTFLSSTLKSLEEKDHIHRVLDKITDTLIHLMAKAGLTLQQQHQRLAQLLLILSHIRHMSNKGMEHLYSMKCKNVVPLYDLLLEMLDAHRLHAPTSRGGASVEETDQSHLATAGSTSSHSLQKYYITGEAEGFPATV
It counts as functional.

Test [12] addresses T5, Thromboxane A2 receptor (Homo sapiens, UniProt P21731).
T5 sequence (P21731 whole entry): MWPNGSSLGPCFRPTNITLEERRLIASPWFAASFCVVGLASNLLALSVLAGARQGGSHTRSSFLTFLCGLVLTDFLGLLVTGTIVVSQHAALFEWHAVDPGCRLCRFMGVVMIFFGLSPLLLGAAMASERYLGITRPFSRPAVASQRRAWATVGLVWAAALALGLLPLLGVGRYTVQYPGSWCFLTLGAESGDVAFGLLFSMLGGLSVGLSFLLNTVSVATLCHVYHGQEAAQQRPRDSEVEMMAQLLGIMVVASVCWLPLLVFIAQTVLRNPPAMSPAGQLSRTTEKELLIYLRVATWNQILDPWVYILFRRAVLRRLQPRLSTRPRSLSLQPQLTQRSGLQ
The class given is functional, cell-based.

The target in test [13] is T4, Estrogen receptor. It counts as functional. The source holds these as a separate data set.

Our source for the AC50 values is ChEMBL document CHEMBL5291721, “A preclinical secondary pharmacology resource illuminates target-adverse drug reaction associations of marketed drugs” (Nat Commun, 2023).

A value given as a limit tells only on which side of the number the result lay.

The term AC50 denotes the midpoint of the concentration-response curve, whichever way the signal moves.
Also: assay procedure not described here.

Sequence of Hydroxycarboxylic acid receptor 2 (Q8TDS4 whole entry): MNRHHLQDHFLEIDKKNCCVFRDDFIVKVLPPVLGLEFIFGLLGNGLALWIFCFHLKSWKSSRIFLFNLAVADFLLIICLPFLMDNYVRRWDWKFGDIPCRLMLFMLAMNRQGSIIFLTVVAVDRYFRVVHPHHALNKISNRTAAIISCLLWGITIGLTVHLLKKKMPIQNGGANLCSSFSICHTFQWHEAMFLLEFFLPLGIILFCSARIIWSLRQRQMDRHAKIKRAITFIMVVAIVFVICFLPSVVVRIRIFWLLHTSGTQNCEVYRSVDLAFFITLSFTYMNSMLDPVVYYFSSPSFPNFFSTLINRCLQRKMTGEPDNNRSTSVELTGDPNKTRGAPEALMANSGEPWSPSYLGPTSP
Sequence of 5-hydroxytryptamine receptor 5A (P47898 whole entry): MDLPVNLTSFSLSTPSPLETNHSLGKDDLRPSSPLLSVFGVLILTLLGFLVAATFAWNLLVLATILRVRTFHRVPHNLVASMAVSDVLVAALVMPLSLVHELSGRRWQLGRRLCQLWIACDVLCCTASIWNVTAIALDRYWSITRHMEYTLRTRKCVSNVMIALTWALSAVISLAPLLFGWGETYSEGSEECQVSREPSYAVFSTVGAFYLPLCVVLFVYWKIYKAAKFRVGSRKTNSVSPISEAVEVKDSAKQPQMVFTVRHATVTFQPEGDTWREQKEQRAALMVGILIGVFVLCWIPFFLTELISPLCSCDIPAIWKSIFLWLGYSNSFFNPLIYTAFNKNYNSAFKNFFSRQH
Sequence of D(1A) dopamine receptor (P21728 whole entry): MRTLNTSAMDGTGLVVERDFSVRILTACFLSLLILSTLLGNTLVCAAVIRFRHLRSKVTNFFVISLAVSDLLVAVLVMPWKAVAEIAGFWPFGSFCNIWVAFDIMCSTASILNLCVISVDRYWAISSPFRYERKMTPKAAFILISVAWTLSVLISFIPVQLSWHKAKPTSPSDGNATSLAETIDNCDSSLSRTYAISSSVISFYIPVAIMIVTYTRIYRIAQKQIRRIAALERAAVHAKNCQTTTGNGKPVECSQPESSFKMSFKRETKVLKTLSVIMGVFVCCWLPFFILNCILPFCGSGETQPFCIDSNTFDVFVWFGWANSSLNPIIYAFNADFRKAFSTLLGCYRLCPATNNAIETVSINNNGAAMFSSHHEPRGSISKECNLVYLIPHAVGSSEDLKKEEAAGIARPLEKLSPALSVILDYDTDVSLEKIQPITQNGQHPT
Sequence of D(1B) dopamine receptor (P21918 whole entry): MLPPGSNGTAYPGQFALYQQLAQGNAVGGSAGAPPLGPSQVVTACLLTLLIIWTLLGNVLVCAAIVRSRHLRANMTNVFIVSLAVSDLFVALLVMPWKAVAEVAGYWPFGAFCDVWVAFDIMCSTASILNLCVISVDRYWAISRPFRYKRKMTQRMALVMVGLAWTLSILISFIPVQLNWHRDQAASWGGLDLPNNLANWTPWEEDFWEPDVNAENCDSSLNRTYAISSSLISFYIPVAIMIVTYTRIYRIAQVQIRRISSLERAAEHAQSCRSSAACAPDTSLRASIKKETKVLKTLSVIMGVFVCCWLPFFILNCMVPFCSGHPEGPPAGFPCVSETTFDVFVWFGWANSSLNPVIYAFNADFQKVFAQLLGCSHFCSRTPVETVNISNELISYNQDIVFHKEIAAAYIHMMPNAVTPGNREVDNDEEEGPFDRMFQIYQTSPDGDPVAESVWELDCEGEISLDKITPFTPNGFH
Sequence of Synaptic vesicular amine transporter (Q01827 whole entry): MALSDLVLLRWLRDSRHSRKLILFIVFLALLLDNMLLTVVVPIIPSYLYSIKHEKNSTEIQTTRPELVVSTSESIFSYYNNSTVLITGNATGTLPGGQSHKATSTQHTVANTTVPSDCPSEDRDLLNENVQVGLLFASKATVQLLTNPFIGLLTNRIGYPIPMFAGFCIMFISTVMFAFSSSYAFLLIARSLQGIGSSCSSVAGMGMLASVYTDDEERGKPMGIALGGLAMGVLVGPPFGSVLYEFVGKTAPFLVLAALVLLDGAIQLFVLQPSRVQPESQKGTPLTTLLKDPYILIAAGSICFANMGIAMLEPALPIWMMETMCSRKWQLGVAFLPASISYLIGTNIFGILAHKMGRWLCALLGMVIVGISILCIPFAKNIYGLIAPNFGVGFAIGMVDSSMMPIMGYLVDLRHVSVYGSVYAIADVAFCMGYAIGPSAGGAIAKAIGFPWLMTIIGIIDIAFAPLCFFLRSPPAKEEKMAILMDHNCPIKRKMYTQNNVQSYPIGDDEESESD
Sequence of Rod cGMP-specific 3',5'-cyclic phosphodiesterase subunit alpha (P16499 whole entry): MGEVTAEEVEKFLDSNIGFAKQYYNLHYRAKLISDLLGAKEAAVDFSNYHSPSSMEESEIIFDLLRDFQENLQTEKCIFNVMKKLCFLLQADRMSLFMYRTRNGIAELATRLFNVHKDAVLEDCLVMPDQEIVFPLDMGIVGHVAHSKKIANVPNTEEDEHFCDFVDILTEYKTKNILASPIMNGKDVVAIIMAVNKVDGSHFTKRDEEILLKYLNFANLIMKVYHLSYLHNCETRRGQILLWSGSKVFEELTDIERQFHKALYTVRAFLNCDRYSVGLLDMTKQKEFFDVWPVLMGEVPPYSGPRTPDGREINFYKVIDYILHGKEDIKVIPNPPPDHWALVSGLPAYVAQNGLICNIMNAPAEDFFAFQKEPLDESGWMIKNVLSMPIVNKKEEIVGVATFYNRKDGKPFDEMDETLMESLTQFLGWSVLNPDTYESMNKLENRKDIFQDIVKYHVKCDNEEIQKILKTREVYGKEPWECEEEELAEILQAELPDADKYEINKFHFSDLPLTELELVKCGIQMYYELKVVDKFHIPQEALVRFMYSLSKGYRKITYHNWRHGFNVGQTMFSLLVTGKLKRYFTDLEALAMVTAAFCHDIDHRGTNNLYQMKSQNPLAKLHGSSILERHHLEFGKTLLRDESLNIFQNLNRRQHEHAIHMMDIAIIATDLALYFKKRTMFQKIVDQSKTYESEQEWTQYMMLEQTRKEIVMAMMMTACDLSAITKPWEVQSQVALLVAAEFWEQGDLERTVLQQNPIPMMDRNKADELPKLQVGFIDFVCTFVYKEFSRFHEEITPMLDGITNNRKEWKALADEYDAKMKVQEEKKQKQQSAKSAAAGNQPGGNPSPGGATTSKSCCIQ
Sequence of 5-hydroxytryptamine receptor 2B (P41595 whole entry): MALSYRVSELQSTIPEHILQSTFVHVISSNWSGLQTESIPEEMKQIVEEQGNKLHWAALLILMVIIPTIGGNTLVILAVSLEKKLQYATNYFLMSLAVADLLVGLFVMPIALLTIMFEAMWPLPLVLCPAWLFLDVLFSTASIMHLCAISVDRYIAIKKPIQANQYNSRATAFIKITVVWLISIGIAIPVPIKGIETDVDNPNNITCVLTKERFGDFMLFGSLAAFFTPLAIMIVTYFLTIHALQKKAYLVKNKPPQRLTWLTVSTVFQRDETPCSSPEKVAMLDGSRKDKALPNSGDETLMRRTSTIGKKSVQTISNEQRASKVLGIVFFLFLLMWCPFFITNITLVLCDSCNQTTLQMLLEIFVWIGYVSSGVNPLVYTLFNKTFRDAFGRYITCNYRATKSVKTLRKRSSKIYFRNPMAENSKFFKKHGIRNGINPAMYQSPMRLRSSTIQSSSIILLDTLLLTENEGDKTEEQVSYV

On to `CN(C)C/C=C/C(=O)Nc1cc2c(Nc3ccc(F)c(Cl)c3)ncnc2cc1O[C@H]1CCOC1` [AFATINIB], for which, in test [1], the AC50 is > 30 µM. `O=C(/C=C/c1cccc(S(=O)(=O)Nc2ccccc2)c1)NO` [BELINOSTAT]: the half-maximal activity concentration (AC50) in test [2], in test [3] and in test [4] was > 10 µM in each case. For `CC(Cc1cccc(C(F)(F)F)c1)NCCOC(=O)c1ccccc1` (configuration not stated) [BENFLUOREX], the AC50 in [5] amounted to 0.933 µM.

For `CC(C)(Oc1ccc(CCNC(=O)c2ccc(Cl)cc2)cc1)C(=O)O` [BEZAFIBRATE], the AC50 in [1] was > 30 µM. As to `CC(O)(CS(=O)(=O)c1ccc(F)cc1)C(=O)Nc1ccc(C#N)c(C(F)(F)F)c1` (configuration not stated) [BICALUTAMIDE], the AC50 in [6] and in test [7] was > 30 µM each time. Consider `O=C(O)COCCN1CCN(C(c2ccccc2)c2ccc(Cl)cc2)CC1` (configuration not stated) [CETIRIZINE], for which the results for the AC50 in test [8] and in test [6] were > 10 µM and > 30 µM, respectively. Take `CC(=O)O[C@]1(C(C)=O)CC[C@H]2[C@@H]3C=C(Cl)C4=CC(=O)[C@@H]5C[C@@H]5[C@]4(C)[C@H]3CC[C@@]21C` [CYPROTERONE ACETATE]: the AC50 in [7] was > 30 µM.

`CN[C@]1(c2ccccc2Cl)CCCCC1=O` [ESKETAMINE]: in test [9], the AC50 was > 30 µM. As to `CNCCc1ccc(OC(=O)C(C)C)c(OC(=O)C(C)C)c1` [IBOPAMINE], the AC50 in test [10] is > 30 µM. `CN(C)CCCN1c2ccccc2CCc2ccccc21` [IMIPRAMINE]: the AC50 in test [9] was 11.4 µM; in test [2], 8.33 µM; in [3], 2.26 µM; in test [4], > 10 µM; in [6] it was > 30 µM. Turning to `CN(Cc1cnc2nc(N)nc(N)c2n1)c1ccc(C(=O)N[C@@H](CCC(=O)O)C(=O)O)cc1` [METHOTREXATE], the AC50 in test [6] was > 30 µM. On to `OC[C@H]1O[C@@H](n2cnc3c2NC=NC[C@H]3O)C[C@@H]1O` [PENTOSTATIN], for which the half-maximal activity concentration (AC50) in test [1] was > 30 µM. For `CC(C)c1cccc(C(C)C)c1O` [PROPOFOL], the AC50 in [11], in test [12], in test [10], in [1] and in test [13] was > 30 µM each time. As to `CN[C@@H](C)[C@@H](O)c1ccccc1` [PSEUDOEPHEDRINE], the AC50 in test [8] was > 10 µM; in test [6], > 30 µM.
